# Test results taken from patent publication US20060148829A1, “Means for inducing differentiation of supernumerary hair cells and deiters' cells in the developing organ of corti” (priority 2002, published 2006).
# Starred links: 1 amine or outer side, 2 acyl side, 3 side chain; linkers in the order of their positions; H or OH if unused. Positions of bridges follow the written chain, without caps; N, C: chain ends. Non-standard residues stand in square brackets, D forms with d. Residues, ends and D or L forms follow the SMILES beside them. Chains are numbered I, II in the order given. Actinocin(9to1) = Cc1c2oc3c(C)ccc(C(=O)[*:1])c3nc-2c(C(=O)[*:2])c(N)c1=O; NMeV = CN[C@H](C(=O)O)C(C)C; Sar = CNCC(=O)O
# Columns and labels:
# [1] = test system: rat organ of Corti explants; test: Induction of supernumerary hair cells (HCs) in cultured organ of Corti explants; details: for Induction of supernumerary HCs (in words): E19 rat organ of Corti explants, 5 days in culture; for Concentration inducing maximum supernumerary HCs differentiation: isolated organs of Corti, lowest concentration inducing maximum effect, for inactive compounds highest concentration tested 100 :M
# Description: Time-pregnant Sprague-Dawley rats or neonates were killed by euthanasia on gestational days 17 (E17), E19, or on postnatal days 0 (day of birth=P0), P2 and P4 with CO2. Both cochleae were dissected free from the calvaria with watchmaker forceps and under a stereomicroscope. Each organ of Corti was freed from surrounding tissues and explanted intact onto the surface of a sterile membrane (Mllicellm, 12 mm, Millipore, Bedford, Mass., USA) in minimum essential medium (MEM; Gibco, Gent, Belgium) into a 24-well culture plate (Nunc). Cultures were incubated at 37° C. in a humidified atmosphere of 95% air and 5% CO2. Medium was renewed every 2 days.
# Organs of Corti were dissected from E19 rats and maintained in culture. […] For each condition, the explants were fixed and the supernumerary zones were counted after myosin VIIa immunostaining.
# Quantitative analysis of supernumerary HCs production was obtained by counting the number of HCs per length and surface of sensory epithelium regions from the medium turn as previously described (5). If supernumerary cells were actually produced, the number of cells per unit of length should increase while the number of cells per surface unit should remain at the same level. […] The total length of each organ of Corti explant was measured and the extent of the region with supernumerary HCs was expressed as percent of total length. These supernumerary regions were defined by the presence of more than four rows of HCs.
# [2] = test system: CDK1/cyclin B; details: Knockaert et al, 2002b; cited from earlier work
# [3] = test system: E19 explants of organ of Corti; test: BrdU labelling of cell proliferation in organ of Corti explants; assay type: cell-based, rat
# Protocol: Immunohistochemistry, immunocytochemistry and confocal microscopy were carried out as previously described (4;5). Whole-mount preparations or cryostat sections (10-20 :m) were fixed with either 4% paraformaldehyde (10 min. at 20° C.) or methanol (5 min. at −20° C.). Primary antibodies incubations were performed overnight at 4° C. Preparations were washed three times in PBS before incubating with a secondary antibody conjugated to alexa488, alexa568 or TRITC fluorophore for 1 hour at 20° C. Sequential double labeling experiments were done with a 4% paraformaldehyde fixation step in between each immunoreaction. Preparations were mounted on microscope slides and coverslipped with Fluoprep mounting medium (BioMérieux, Marcy l'Etoile, France) and imaged using a Bio-Rad MRC1024 laser scanning confocal microscope. To label cells in S phase in vitro, BrdU (10 :M, Sigma, USA) which is incorporated into replicating DNA, was added to the cultures for 2 or 5DIV prior staining.
# [4] = test system: E19 rat organ of Corti explants; test: TUNEL labelling of apoptosis in organ of Corti explants; assay type: cell-based; details: 10 :M, after 1, 2 or 5 DIV
# Description: The apoptosis in E19 rat organ of Corti explants was looked for by staining the specimens cultured for 1, 2 or 5DIV with the terminal deoxynudeotidyl transferase-mediated dUTP nick-end labelling (TUNEL) method using the ApopTag fluorescent detection kit (Oncor, Gaitherburg, Md.) as previously described (6).
# [5] = test system: mouse organs of Corti (Math1 genotypes); test: Roscovitine-induced HCs in organs of Corti of wild type, Math1-null and heterozygote mice; assay type: cell-based; details: 5DIV
# Protocol: Math1 knockout mice were generated by replacing the Math1 open reading frame (ORF) with the selectable marker PGKhprt as previously described by Ben-Arie et al.(l). Math1^∃^gal/^∃^-gal knock-in mice were generated by replacing the Math1 ORF with a ∃-galactosidase (∃-gal) reporter gene so that ∃-gal is expressed in all cells that express Math1 (2).
# Whole-mount lacZ staining was carried out on cultured E15.5 organ of Corti explants as previously described (2;3). After 5DIV, explants were fixed in 4% paraformaldehyde for 20 minutes, washed thoroughly in PBS and equilibrate in X-gal staining buffer (5 mM potassium ferricyanide, 5 mM potassium ferrocyanide, 0.02% NP40, and 0.01% sodium deoxycholate). Explants were stained overnight in X-gal buffer with X-gal (1 mg/ml) then post-fixed in 4% paraformaldehyde. Genotyping of tail DNA was performed using Southern analysis of EcoRI digested DNA and probes as previously described (1).
# [6] = Administration to patients suffering of deafness; assay type: in vivo; details: regularly administered
Molecule,Induction of supernumerary HCs (in words) [1],Concentration inducing maximum supernumerary HCs differentiation [1],further results
"CC(C)[C@H](CO)Nc1nc(N(C)c2cc(N)cc(Cl)c2)c2ncn(C(C)C)c2n1 [6-methyl-aminopurvalanol, N6-methyl-aminopurvalanol]",no effect,no effect,
"Cc1c2oc3c(C)ccc(C(=O)N[C@@H]4C(=O)N[C@H](C(C)C)C(=O)N5CCC[C@H]5C(=O)N(C)CC(=O)N(C)[C@@H](C(C)C)C(=O)O[C@@H]4C)c3nc-2c(C(=O)N[C@@H]2C(=O)N[C@H](C(C)C)C(=O)N3CCC[C@H]3C(=O)N(C)CC(=O)N(C)[C@@H](C(C)C)C(=O)O[C@@H]2C)c(N)c1=O [Actinomycin D, actinomycin D] (I: T[dV]P[Sar][NMeV] / II: T[dV]P[Sar][NMeV]; ester I:1-I:C, II:1-II:C; linker I:N-II:N via Actinocin(9to1))",able to induce supernumerary HCs,0.0001 :M,
"OC[C@H]1O[C@@H](n2cnc3cc(Cl)c(Cl)cc32)[C@H](O)[C@@H]1O [DRB, 6-dichloro-1-beta-D-ribobenzimidazole]",able to induce supernumerary HCs,0.01 :M,
N#CC(=C(/N)Sc1ccccc1N)/C(C#N)=C(\N)Sc1ccccc1N [U0126],did not induce supernumerary HCs,no effect,CDK1 inhibition (IC50) [2]: no effect
O=C1Cc2c([nH]c3ccc([N+](=O)[O-])cc23)-c2ccccc2N1 [alsterpaullone],induced the appearance of supernumerary HCs,5 :M,
CC(C)[C@H](CO)Nc1nc(Nc2cc(N)cc(Cl)c2)c2ncn(C(C)C)c2n1 [aminopurvalanol],,5 :M,
O=C1c2ccccc2-[n+]2ccc3c([nH]c4ccccc43)c21 [fascaplysin],no effect,no effect,CDK1 inhibition (IC50) [2]: no effect
Cn1cnc2nc(NCCO)nc(NCc3ccccc3)c21 [iso-olomoucine],no effect,no effect,
Cn1cnc2c(NCc3ccccc3)nc(NCCO)nc21 [olomoucine],,30 :M,
CC[C@H](CO)Nc1nc(NCc2ccccc2)c2ncn(C(C)C)c2n1 [roscovitine],higher number of supernumerary HCs and corresponding SCs,10 :M,"Developmental stage dependence of induction of supernumerary HCs ([1]; 10 :M, 5 days of culture, stages E17 to P4): culminated at E17, sightly decreased at E19 and disappeared at P0; Toxicity for cells in the organ of Corti ([1]; 30 and 100 :M): toxic for all cells in the organ of Corti; Time in culture for maximal effect on length of supernumerary zones ([1]; E19 rat explants, 10 :M): 5 DIV; Supernumerary segments as percent of the total length of the explants ([1]; E19 rat explants, 10 :M, 5DIV, mean, S.D., n=4 independent experiments): 52.9%; Time in culture for effect on length of supernumerary zones ([1]; E19 rat explants, 10 :M, significant effect): 4 DIV; Density of HCs per surface unit vs control explants ([1]; roscovitine-treated explants): remained identical to that of control explants; Rate of proliferation of mesenchymal cells in connective tissue ([3]; E19 explants, BrdU): higher in the absence of roscovitine; BrdU labelling of epithelial cells in the area of HCs and SCs ([3]; roscovitine-treated E19 explants, 10 :M BrdU, 2 or 5 DIV): No epithelial cells were labeled with BrdU; TUNEL positive nuclei [4]: no TUNEL positive nuclei were identified; Myosin VIIA positive supernumerary HCs, wild type mice ([5]; E15 or E18 wild type mice): myosin VIIA immunopositive supernumerary HCs, (FIG. 9A) were observed; Supernumerary HCs, Math1 heterozygote mice ([5]; E15.5 Math1 +/beta-gal organs of Corti, 10 :M): supernumerary HCs were present; Myosin VIIA staining, Math1-null mutant mice ([5]; E15.5 Math1-null cochlea): absent; Clinical effect in patients suffering of deafness [6]: An improvement of their troubles was observed; Tolerability in patients suffering of deafness [6]: without any drawbacks"
indirubin-3′-monoxime,induced the appearance of supernumerary HCs,10 :M,
